For 27 compounds, EC50 results are on record in patent US10584115B2, “Substituted pyridine and pyrazine BMI-1 inhibitors” (PTC Therapeutics, Inc., priority 2013, dated 2020).

SMILES strings stand for the structures.

The first test concerns Bmi-1 protein. As to the kind of experiment: Sandwich ELISA Assay (Bmi-1 protein level in HT-1080 cells after compound treatment). Particulars: Table 1, Bmi-1 sandwich ELISA, read-out: ELISA EC50 value for Bmi-1 protein. It is filed as cell-based. The method, boiled down: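 HT-1080 cells exposed to compounds for 40–48 h at 37 °C (0.5% DMSO final), then lysed. Bmi-1 in lysates measured by sandwich ELISA (mouse monoclonal capture, rabbit anti-Bmi-1 detection, HRP anti-rabbit, TMB), read at OD450 with OD570 reference against a recombinant Bmi-1 standard curve (0–8000 pg/mL).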
As for `FC(F)(F)Oc1ccc(Nc2cncc(-c3c(C(F)(F)F)nc4ccccn34)n2)cc1` [Cpd 11, N-[4-(trifluoromethoxy)phenyl]-6-[2-(trifluoromethyl)imidazo[1,2-a]pyridin-3-yl]pyrazin-2-amine], the concentration for a half-maximal effect (EC50) was 10 to 100 nM.
Take `N#Cc1nc2ccccc2n1-c1cncc(Nc2ccc(C(F)(F)F)cc2)n1` [compound 157, 1-(6-{[4-(trifluoromethyl)phenyl]amino}pyrazin-2-yl)-1H-benzimidazole-2-carbonitrile]: the EC50 lay in the range of 100 to 3000 nM.
The same measure, in the same setting: the result for `CCc1nn(C)c(CC)c1-c1cncc(Nc2ccc(OC(F)F)cc2)n1` [compound 333, 6-(3,5-diethyl-1-methyl-1H-pyrazol-4-yl)-N-[4-(difluoromethoxy)phenyl]pyrazin-2-amine] reads 1 to 10 nM; that for `Cc1nc2cc(F)c(F)cc2n1-c1cc(N)cc(Nc2ccc(OC(F)(F)F)cc2)n1` [compound 652, 6-(5,6-difluoro-2-methyl-1H-benzimidazol-1-yl)-N^2-[4-(trifluoromethoxy)phenyl]pyridine-2,4-diamine], 10 to 100 nM.
Still for that read-out and setting: then `FC(F)(F)Oc1ccc(Nc2cncc(-c3c(C(F)(F)F)nc4n3CCCC4)n2)cc1` [Cpd 234, N-[4-(trifluoromethoxy)phenyl]-6-[2-(trifluoromethyl)-5,6,7,8-tetrahydroimidazo[1,2-a]pyridin-3-yl]pyrazin-2-amine], with 10 to 100 nM; and `OCCNc1cc(Nc2ccc(OC(F)F)cc2)nc(-c2c(C(F)(F)F)nc3ccccn23)c1` [compound 171], with 10 to 100 nM; and `COc1ccc(Nc2cncc(-c3c(C)nn4ccccc34)n2)cc1` [compound 565, N-(4-methoxyphenyl)-6-(2-methylpyrazolo[1,5-a]pyridin-3-yl)pyrazin-2-amine], with < 1 nM.
On the same count and under the same terms, the result for `Cc1nc2cc(F)c(F)cc2n1-c1cncc(Nc2ccc(C(F)(F)F)cc2)n1` [compound 683, 6-(5,6-difluoro-2-methyl-1H-benzimidazol-1-yl)-N-[4-(trifluoromethyl)phenyl]pyrazin-2-amine] reads 10 to 100 nM; that for `Nc1cc(Nc2ccc(OC(F)(F)F)cc2)nc(-c2c(C(F)(F)F)nc3ccccn23)c1` [compound 198, N^2-[4-(trifluoromethoxy)phenyl]-6-[2-(trifluoromethyl)imidazo[1,2-a]pyridin-3-yl]pyridine-2,4-diamine], 10 to 100 nM; that for `Cc1nc2ncccc2n1-c1cncc(Nc2ccc(OC(F)(F)F)cc2)n1` [compound 95, 6-(2-methyl-1H-imidazo[4,5-b]pyridin-1-yl)-N-[4-(trifluoromethoxy)phenyl]pyrazin-2-amine], 10 to 100 nM.
On to `COc1ccc2nc(C(F)(F)F)c(-c3cncc(Nc4ccc(Br)cc4)n3)n2c1` [Cpd 680, N-(4-bromophenyl)-6-[6-methoxy-2-(trifluoromethyl)imidazo[1,2-a]pyridin-3-yl]pyrazin-2-amine], for which the EC50 lay within 10 to 100 nM.
On the same count and under the same terms, then `FC(F)(F)c1nc2ccccn2c1-c1cncc(Nc2cnc(Cl)nc2)n1` [compound 200, 2-chloro-N-{6-[2-(trifluoromethyl)imidazo[1,2-a]pyridin-3-yl]pyrazin-2-yl}pyrimidin-5-amine], with 100 to 3000 nM; and `CCc1nn2ccccc2c1-c1cncc(Nc2ccc(OC)cc2)n1` [compound 627, 6-(2-ethylpyrazolo[1,5-a]pyridin-3-yl)-N-(4-methoxyphenyl)pyrazin-2-amine], with < 1 nM.
Same read-out and setting: the result for `FC(F)Oc1ccc(Nc2cncc(-c3c(C(F)(F)F)nc4cnccn34)n2)cc1` [compound 142, N-[4-(difluoromethoxy)phenyl]-6-[2-(trifluoromethyl)imidazo[1,2-a]pyrazin-3-yl]pyrazin-2-amine] reads 10 to 100 nM; that for `COc1ccc2nc(C(F)(F)F)c(-c3cncc(Nc4ccc(C#N)cc4)n3)n2c1` [Cpd 49, 4-({6-[6-methoxy-2-(trifluoromethyl)imidazo[1,2-a]pyridin-3-yl]pyrazin-2-yl}amino)benzonitrile], 100 to 3000 nM.
Same read-out and setting: then `Cc1ccc(Nc2cncc(-c3c(C)nn4ccccc34)n2)cc1` [compound 566, N-(4-methylphenyl)-6-(2-methylpyrazolo[1,5-a]pyridin-3-yl)pyrazin-2-amine], with 1 to 10 nM.
As to `FC(F)Oc1ccc(Nc2cccc(-c3c(C(F)(F)F)nc4cnccn34)n2)cc1` [compound 196, N-[4-(difluoromethoxy)phenyl]-6-[2-(trifluoromethyl)imidazo[1,2-a]pyrazin-3-yl]pyridin-2-amine], the EC50 fell in the range of 10 to 100 nM.
Same read-out and setting: the result for `Cc1nc2ncc(Cl)cc2n1-c1cncc(Nc2ccc(OC(F)(F)F)cc2)n1` [compound 542, 6-(6-chloro-2-methyl-1H-imidazo[4,5-b]pyridin-1-yl)-N-[4-(trifluoromethoxy)phenyl]pyrazin-2-amine] reads 10 to 100 nM; that for `CCc1nc2cc(F)c(F)cc2n1-c1cncc(Nc2ccc(C(F)(F)F)cc2)n1` [compound 177, 6-(2-ethyl-5,6-difluoro-1H-benzimidazol-1-yl)-N-[4-(trifluoromethyl)phenyl]pyrazin-2-amine], 10 to 100 nM; that for `Fc1ccc2nc(C(F)(F)F)c(-c3cncc(Nc4ccc(C(F)(F)F)cc4)n3)n2c1` [Cpd 58, 6-[6-fluoro-2-(trifluoromethyl)imidazo[1,2-a]pyridin-3-yl]-N-[4-(trifluoromethyl)phenyl]pyrazin-2-amine], 1 to 10 nM.
On the same count and under the same terms, then `COc1cc(Nc2ccc(C(F)(F)F)cc2)nc(-c2c(C(F)(F)F)nc3ccccn23)c1` [Cpd 107, 4-methoxy-6-[2-(trifluoromethyl)imidazo[1,2-a]pyridin-3-yl]-N-[4-(trifluoromethyl)phenyl]pyridin-2-amine], with 100 to 3000 nM.
On the same count and under the same terms, then `Cc1nc2ncccc2n1-c1cccc(Nc2ccc(C(F)(F)F)cc2)n1` [compound 139, 6-(2-methyl-1H-imidazo[4,5-b]pyridin-1-yl)-N-[4-(trifluoromethyl)phenyl]pyridin-2-amine], with 10 to 100 nM; and `CCc1nc2ncc(Cl)cc2n1-c1cncc(Nc2ccc(OC(F)(F)F)cc2)n1` [compound 548, 6-(6-chloro-2-ethyl-1H-imidazo[4,5-b]pyridin-1-yl)-N-[4-(trifluoromethoxy)phenyl]pyrazin-2-amine], with 10 to 100 nM.
Take `N#Cc1cc(Nc2ccc(C(F)(F)F)cc2)nc(-c2c(CO)nc3ccc(F)cn23)c1` [compound 383, 2-[6-fluoro-2-(hydroxymethyl)imidazo[1,2-a]pyridin-3-yl]-6-{[4-(trifluoromethyl)phenyl]amino}pyridine-4-carbonitrile]: the EC50 lay within 10 to 100 nM.
Turning to `CCc1nn2ccccc2c1-c1cncc(Nc2ccc(C(F)(F)F)cc2)n1` [compound 520, 6-(2-ethylpyrazolo[1,5-a]pyridin-3-yl)-N-[4-(trifluoromethyl)phenyl]pyrazin-2-amine], the EC50 fell in the range of 1 to 10 nM.
Same read-out and setting: the result for `Cc1nc2c(F)cc(F)cc2n1-c1cc(C#N)cc(Nc2ccc(OC(F)(F)F)cc2)n1` [Cpd 449, 2-(4,6-difluoro-2-methyl-1H-benzimidazol-1-yl)-6-{[4-(trifluoromethoxy)phenyl]amino}pyridine-4-carbonitrile] reads 100 to 3000 nM.

Still in this test, the particulars now being: read-out: ELISA EC50 value for Bmi-1 protein, Table 1, Bmi-1 sandwich ELISA.
For the compound `FC(F)(F)c1ccc(Nc2cncc(-c3c(C(F)(F)F)nn4ccccc34)n2)cc1` [compound 62, N-[4-(trifluoromethyl)phenyl]-6-[2-(trifluoromethyl)pyrazolo[1,5-a]pyridin-3-yl]pyrazin-2-amine], the EC50 is 10 to 100 nM.
